Data taken from patent US11242374B2, “Minimally-invasive and activity-dependent control of excitable cells” (Brown University, priority 2015, dated 2022).

Assays:
[1] = system: TRN and neighboring relay nuclei (eGLuc-VChR1); assay: in vivo laminar electrode recording from TRN and neighboring relay nuclei after IV CTZ; set-up: species or system mice; details: ca. 150 μg CTZ IV (tail vein)
Procedure: (§1) Mice were injected with AAV2/9-hSyn-eGLuc-VChR1 into the thalamus of mice, and in vitro slice experiments were performed 7-12 days later. […] VPm expression was negligible except from TRN axons. Expressing TRN neurons were electrophysiologically normal, and strongly responsive to LED light pulses (FIGS. 5B and 5C). The short latencies and other properties of these responses indicate robust VChR1 expression. Superfusion of the luciferin CTZ (100 μM) caused ca. 1-3 mV reversible depolarization (FIGS. 5D and 5E; N=3 cells, 2 mice). […] At 20 days post viral injection, a 16-contact laminar electrode was used to record from the TRN and neighboring relay nuclei under light isoflurane anesthesia (0.5%). […] Spike shape also indicated relay neuron and not TRN identity. […] These combined effects are consistent with TRN-driven hyperpolarization of this neuron and a shift to burst mode.

[2] = system: neocortical neurons expressing eGLuc-Mac; assay: action potential firing in cultured neocortical neurons expressing eGLuc-Mac; assay type: cell-based; details: cell expressing fusion protein containing eGLuc-Mac (hyperpolarization)
Description: (§2) The neurons were modified to express fusion proteins including a luminescent protein (enhanced Gaussia luciferase (eGLuc)) and either VChR1 or Mac. Successful expression of the full construct in the neocortical neurons was confirmed by observation of the fluorescence of the reporter protein (upper middle panel titled Fluorescence in FIG. 3). Ability of eGLuc to luminesce was unaffected by the inclusion of light-gated ion channel (VChR1 or Mac), as shown in the upper right panel titled Luminescence in FIG. 3).

[3] = system: TRN neurons expressing eGLuc-VChR1; assay: in vitro slice recordings of TRN neurons transduced with AAV2/9-hSyn-eGLuc-VChR1, CTZ superfusion; assay type: cell-based, mice
Procedure: as §1

[4] = system: neocortical neurons expressing eGLuc-VChR1; assay: action potential firing in cultured neocortical neurons expressing eGLuc-VChR1; assay type: cell-based; details: cell expressing fusion protein containing eGLuc-VChR1 (depolarization)
Description: as §2

[5] = system: rat cortical neurons expressing LMO3; assay: multi electrode array (MEA) recording and luminescence of cortical neurons expressing LMO3 (sbGLuc-VChR1); assay type: cell-based
Description: FIGS. 12A-12D show multi electrode arrays used in the in vitro experiments on rat cortical neurons. FIG. 12A is a schematic of the multi electrode array. FIGS. 12B and 12C are images of the electrode array. FIG. 12D is a fluorescent image of MEA culture of rat cortical neurons transduced with AAV-hSyn-LMO3, where LMO3 is a fusion of sbGLuc and VChR1. Neurons are visible in fluorescent green, because of the expression of LMO3, which includes EYFP.
FIG. 13 is a series of graphs showing the luminescence and neuronal activity of rat cortical neurons in response to contacting with coelenterazine (CTZ) or with the vehicle.
Excitable cells (rat cortical neurons) expressing a light-gated ion channel (VChR1) fused to a luminescent protein (Gaussia luciferase) were cultured on multi electrode arrays (MEA), as shown in FIGS. 12A-12D. The results are shown in FIG. 13 Under continuous recording MEA dishes were injected (see arrows) with CTZ or with vehicle. Upon injection a pronounced artifact was observed (see FIG. 13). […] In contrast, vehicle injection causes the artifact, but neuronal spiking pattern is not altered. […] Neurons in the culture express LMO3 (luminopsins 3, a fusion of sbGLuc and VChR1). Upon application of substrate (CTZ), but not of vehicle, the luciferase emits light which activates the channelrhodopsin, resulting in changed spiking activity (see before and after CTZ). […]

[6] = system: neocortical neurons transfected with Gaussia luciferase; assay: IVIS imaging of mouse brain expressing Gaussia luciferase after intravenous coelenterazine; assay type: in vivo; details: intravenous injection several weeks after transfection; right hemisphere
Procedure: FIG. 2 is a photograph showing an example in which neocortical neurons in the right hemisphere were transfected with a Gaussia luciferase.
Several weeks later, coelenterazine was administered intravenously to the mouse, and an image of the mouse's head was taken with IVIS® imaging system (FIG. 2).

SMILES: Oc1ccc(Cc2nc3c(Cc4ccccc4)nc(-c4ccc(O)cc4)cn3c2O)cc1 [CTZ, coelenterazine]
- burst rate in Cell 2 (events with 100 msec prior inactivity and >95 Hz spike rate) [1]: increase in burst rate
- firing rate in other cells (Cell 2, relay neuron) [1]: decreases in firing rate
- firing in multi-unit activity and well-isolated single neurons (Cell 1) ([1]; putative TRN, 20 days post viral injection, isoflurane 0.5%): firing increased
- spontaneous action potential firing [2]: suppression of spontaneous action potential firing
- onset of stimulus-evoked spike bursts ([3]; CTZ-evoked depolarization vs control): delaying onset of stimulus-evoked spike bursts
- reversible depolarization ([3]; superfusion of CTZ 100 μM, N=3 cells, 2 mice): 1-3 mV
- spontaneous action potential firing [4]: increase in spontaneous action potential firing
- neuronal spiking pattern on MEA ([5]; CTZ injected into MEA dishes, vehicle does not alter pattern): desynchronized spiking
- luminescence of neurons ([5]; contacting with CTZ vs vehicle): results in luminescence
- bioluminescence emission through the scalp [6]: emitted brightly
